Some test systems named below: BT-549 breast; M14 melanoma; SF-268 CNS; CCRF-CEM leukemia; HOP-92 NSCLC; HCT-116 colon; OVCAR-4 ovarian; UACC-62 melanoma; SNB-19 CNS; CAKI-1 renal.
What all share (experiment): NCI tumour cell line growth inhibition, 48 h

SMILES strings stand for the structures.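 A five-concentration, 48-hour dose response in 96-well plates underlies each endpoint, interpolated linearly between surrounding concentrations. Here, GI50 denotes the concentration required for 50% inhibition of growth. Definition used: TGI = concentration required for complete inhibition of growth.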

Consider `FC(F)(F)c1ccc2c(Nc3cccc(C4CC(c5ccccc5)=NN4c4ccc(Cl)cc4)c3)ccnc2c1` (configuration not stated), for which the GI50 in the assay on BT-549 breast is 2.29 µM; in the assay on M14 melanoma it was 3.93 µM; in the assay on SF-268 CNS it was 3.35 µM; in the assay on CCRF-CEM leukemia, 3.32 µM; in the assay on HOP-92 NSCLC, 3.21 µM; with HCT-116 colon, 1.62 µM. Further, the GI50 with OVCAR-4 ovarian is 4.99 µM; in the assay with UACC-62 melanoma, 2.64 µM; in the assay with SNB-19 CNS it was 4.38 µM. Besides, the TGI worked out at 7.4 µM in the assay on BT-549 breast; 22 µM in the assay with M14 melanoma; 21.5 µM in the assay on SF-268 CNS; 38.5 µM with CCRF-CEM leukemia; 40.5 µM with HOP-92 NSCLC; 3.63 µM in the assay on HCT-116 colon. Also, the TGI worked out at 28.9 µM with OVCAR-4 ovarian, 10.6 µM with UACC-62 melanoma and 27 µM in the assay with SNB-19 CNS.

As for `COC(=O)NC/C=C\c1nc(CC/C=C\C(=O)OC2CC3CC(=O)O[C@@H](/C=C/CC(C)C)C[C@@H]4CCC(C)C(C[C@@H](OC)CC(C2)O3)O4)co1` (some centres not stated), the GI50 with BT-549 breast is 9.93 µM; in the assay on M14 melanoma it was 7.36 µM; in the assay with SF-268 CNS it was less than 0.01 µM; with CAKI-1 renal, less than 0.01 µM; in the assay with HOP-92 NSCLC, less than 0.01 µM; with HCT-116 colon, less than 0.01 µM. Moreover, the GI50 with UACC-62 melanoma is 0.412 µM; with SNB-19 CNS it was 34.4 µM. In addition, the TGI was greater than 100 µM in the assay on BT-549 breast; greater than 100 µM with M14 melanoma; 84 µM with SF-268 CNS; 70.6 µM in the assay on CAKI-1 renal; 2.38 µM with HOP-92 NSCLC; 57.5 µM in the assay on HCT-116 colon. In addition, the results for the TGI in the assay with UACC-62 melanoma and with SNB-19 CNS were 25.6 µM and greater than 100 µM, respectively.

With `Cc1ccc([N+](=O)[O-])c2c(NCCCN(C)C)ccnc12`, the TGI in the assay on BT-549 breast, in the assay with M14 melanoma, in the assay with SF-268 CNS, in the assay with CCRF-CEM leukemia, with CAKI-1 renal and in the assay on HOP-92 NSCLC was greater than 100 µM each time. The TGI in the assay with HCT-116 colon was greater than 100 µM; in the assay with OVCAR-4 ovarian, greater than 76.9 µM; in the assay with SNB-19 CNS it was greater than 100 µM.

Consider `CN(C)c1nc(-c2cccs2)n2nc(-c3ccc(Cl)cc3)cc2n1`, for which the GI50 in the assay on BT-549 breast is 62.8 µM; in the assay with SF-268 CNS, 21.3 µM; in the assay with CCRF-CEM leukemia, greater than 100 µM; in the assay on HCT-116 colon, 2.43 µM; in the assay on UACC-62 melanoma it was 5.92 µM; with SNB-19 CNS it was 64.1 µM. In addition, the TGI in the assay on BT-549 breast, in the assay on SF-268 CNS, with CCRF-CEM leukemia, in the assay on HCT-116 colon, with UACC-62 melanoma and with SNB-19 CNS was greater than 100 µM in each case.

With `COc1cc(-c2cn(C)c(=O)c(C)c2C)cc(OC)c1CN1CC[C@H](N2CCN(c3ccc(N[C@H]4CCC(=O)NC4=O)cc3F)CC2)C(F)(F)C1`, the GI50 is 12.6 µM in the assay on BT-549 breast; 12.2 µM in the assay on M14 melanoma; 16.5 µM in the assay with SF-268 CNS; 19.4 µM in the assay with CCRF-CEM leukemia; 6.87 µM in the assay with CAKI-1 renal; 8.81 µM with HOP-92 NSCLC. Besides, the GI50 is 13.1 µM in the assay with HCT-116 colon, 12.1 µM with OVCAR-4 ovarian and 14.8 µM in the assay with SNB-19 CNS. Also, the TGI in the assay with BT-549 breast is 28.3 µM; in the assay with M14 melanoma, 27.7 µM; in the assay on SF-268 CNS it was 40.2 µM; in the assay on CCRF-CEM leukemia, greater than 100 µM; in the assay with CAKI-1 renal it was 33.4 µM; in the assay with HOP-92 NSCLC, 24.8 µM. For the same compound, the TGI came to 27.7 µM with HCT-116 colon, 26.9 µM in the assay with OVCAR-4 ovarian and 31.6 µM in the assay on SNB-19 CNS.

Regarding `C=C1CC(COc2cc(Cl)nc(N)n2)C1`, the GI50 in the assay with BT-549 breast is 20.6 µM; in the assay on SF-268 CNS it was 70.4 µM; with CCRF-CEM leukemia it was 69.6 µM; in the assay with CAKI-1 renal, 22.8 µM; in the assay on HOP-92 NSCLC, 23.1 µM; in the assay on HCT-116 colon, 35.1 µM. In addition, the GI50 is 67.8 µM in the assay on OVCAR-4 ovarian and 37.2 µM in the assay with SNB-19 CNS. The TGI in the assay with CAKI-1 renal was 89.3 µM; with HOP-92 NSCLC, 71.5 µM.

`CCCCCC(=O)Oc1ccc(/C(=C(\C)c2ccc(OC)cc2)c2ccc(OCCN3CCCCC3)cc2)cc1`: the GI50 in the assay with BT-549 breast is 10.7 µM; in the assay on M14 melanoma, 2.02 µM; with SF-268 CNS it was 11.6 µM; in the assay with CCRF-CEM leukemia it was 4.2 µM; in the assay with HOP-92 NSCLC it was 3.83 µM; in the assay with HCT-116 colon, 7.36 µM. Also, the values for the GI50 with OVCAR-4 ovarian, in the assay with UACC-62 melanoma and with SNB-19 CNS were 4.95 µM, 7.19 µM and 11.4 µM, respectively. Also, the TGI with BT-549 breast was determined as 23.2 µM; in the assay with M14 melanoma, 4.37 µM; with SF-268 CNS it was 26.9 µM; in the assay on CCRF-CEM leukemia it was 31.8 µM; in the assay with HOP-92 NSCLC, 17 µM; in the assay with HCT-116 colon, 20.5 µM. For the same compound, the results for the TGI in the assay on OVCAR-4 ovarian, with UACC-62 melanoma and in the assay with SNB-19 CNS were 18.5 µM, 20 µM and 24.8 µM, respectively.

Take `Cc1ccc(-c2nc(C(Cl)Cl)n3nc(-c4ccccc4)cc3n2)cc1`: the GI50 in the assay with BT-549 breast is greater than 100 µM; with M14 melanoma it was greater than 100 µM; in the assay on SF-268 CNS, 1.06 µM; in the assay on CCRF-CEM leukemia, greater than 100 µM; in the assay on CAKI-1 renal it was 0.31 µM; in the assay on HOP-92 NSCLC, 0.281 µM. Also, the GI50 in the assay on HCT-116 colon was 0.258 µM; in the assay with OVCAR-4 ovarian, 0.68 µM. Besides, the TGI in the assay on BT-549 breast is greater than 100 µM; in the assay with M14 melanoma it was greater than 100 µM; in the assay on SF-268 CNS, 4.82 µM; in the assay on CCRF-CEM leukemia it was greater than 100 µM; in the assay with CAKI-1 renal it was 1.49 µM; in the assay with HOP-92 NSCLC, 1.35 µM. For the same compound, the TGI in the assay on HCT-116 colon was 0.712 µM; in the assay on OVCAR-4 ovarian, 3.99 µM.

`COc1cc(/C=C2\CC3C4CC=C5CC(N6CCCC6)CC[C@]5(C)C4CC[C@]3(C)C2OC(C)=O)ccc1OCCN1CCCC1` (some centres not stated): the GI50 in the assay on BT-549 breast is 16.6 µM; in the assay on M14 melanoma it was 1.89 µM; in the assay with SF-268 CNS, 2.53 µM; in the assay on CCRF-CEM leukemia it was 1.95 µM; in the assay on CAKI-1 renal, 1.55 µM; in the assay on HCT-116 colon, 1.54 µM. The figures for the GI50 with OVCAR-4 ovarian, in the assay with UACC-62 melanoma and in the assay on SNB-19 CNS were 2.41 µM, 1.79 µM and 5.73 µM, respectively. Also, the TGI in the assay on BT-549 breast came out at 31.4 µM; in the assay with M14 melanoma, 3.41 µM; in the assay with SF-268 CNS, 6.04 µM; with CCRF-CEM leukemia, 4.87 µM; in the assay on CAKI-1 renal it was 3.93 µM; in the assay with HCT-116 colon it was 2.87 µM. Moreover, the TGI with OVCAR-4 ovarian came out at 5.74 µM; in the assay on UACC-62 melanoma it was 3.45 µM; in the assay with SNB-19 CNS, 22.8 µM.

Regarding `Cc1ccc(C(=O)CC(Sc2cccc(Cl)c2Cl)c2ccc(Cl)cc2)cc1C` (configuration not stated), the GI50 in the assay with BT-549 breast was 24.5 µM; in the assay with M14 melanoma, 26.7 µM; in the assay with SF-268 CNS it was 21.3 µM; with CCRF-CEM leukemia it was 18.7 µM; in the assay with CAKI-1 renal it was 21.6 µM; in the assay on HCT-116 colon, 19.4 µM. In addition, the GI50 in the assay with OVCAR-4 ovarian was 34.5 µM; with UACC-62 melanoma it was 21.2 µM; with SNB-19 CNS it was 27.5 µM. The TGI in the assay with BT-549 breast worked out at 46.9 µM; in the assay with M14 melanoma, 65.1 µM; in the assay on SF-268 CNS it was 48.2 µM; in the assay on CCRF-CEM leukemia it was 94.4 µM; in the assay with CAKI-1 renal it was 45.8 µM; in the assay on HCT-116 colon it was 49.8 µM. Also, the TGI with OVCAR-4 ovarian is greater than 100 µM; with UACC-62 melanoma, 57.6 µM; in the assay with SNB-19 CNS, 78.8 µM.

With `O=c1c2ccccc2c2c3c1cccc3c1cccc3c(=O)c4ccccc4c2c31`, the TGI in the assay with M14 melanoma, in the assay on SF-268 CNS, in the assay on CCRF-CEM leukemia, in the assay on CAKI-1 renal, with HOP-92 NSCLC and with HCT-116 colon was greater than 100 µM throughout. Further, the TGI in the assay on OVCAR-4 ovarian, in the assay on UACC-62 melanoma and in the assay with SNB-19 CNS was greater than 100 µM in each case.

For the compound `COc1ccc(C2C(N)=NCC2c2ccccn2)cc1` (configuration not stated), the TGI in the assay with M14 melanoma, in the assay with SF-268 CNS, with CCRF-CEM leukemia, with CAKI-1 renal, in the assay on HOP-92 NSCLC and with HCT-116 colon was greater than 100 µM throughout. Also, the TGI in the assay on OVCAR-4 ovarian, with UACC-62 melanoma and in the assay with SNB-19 CNS was greater than 100 µM throughout.

As for `Nc1ccc(SC23CC4CC(CC(C4)C2)C3)cc1`, the TGI in the assay on BT-549 breast, in the assay with M14 melanoma, in the assay with SF-268 CNS, in the assay with CCRF-CEM leukemia, in the assay on CAKI-1 renal and in the assay with HCT-116 colon was greater than 100 µM throughout. Also, the TGI in the assay on UACC-62 melanoma and with SNB-19 CNS was greater than 100 µM throughout.

Take `NS(=O)(=O)c1ccc(NC(=O)c2cccc3c(=O)c4ccccc4[nH]c23)cc1`: the TGI in the assay with M14 melanoma, with SF-268 CNS, in the assay with CCRF-CEM leukemia, in the assay with CAKI-1 renal, with HOP-92 NSCLC and in the assay with HCT-116 colon was greater than 100 µM in each case. Moreover, the TGI with OVCAR-4 ovarian, in the assay with UACC-62 melanoma and in the assay with SNB-19 CNS was greater than 100 µM throughout.

Regarding `Clc1cc(Cl)c2c(Cl)cc(Cl)c3c2c1N=S=N3`, the TGI in the assay on M14 melanoma, in the assay on SF-268 CNS, in the assay on CCRF-CEM leukemia, in the assay with CAKI-1 renal, in the assay with HOP-92 NSCLC and with HCT-116 colon was greater than 100 µM in each case. The TGI in the assay with OVCAR-4 ovarian, with UACC-62 melanoma and in the assay with SNB-19 CNS was greater than 100 µM each time.

The values above are taken from PubChem BioAssay (NCI).
